Measured values taken from ChEMBL document CHEMBL3632519, “Withanolides and Sucrose Esters from Physalis neomexicana” (J Nat Prod, 2015).
pIC50: −log10 of the molar value.

What was measured:
MDA-MB-231 = experiment: Cytotoxicity against human MDA-MB-231 cells by MTT assay; type: functional, cell-based
MCF7 = experiment: Cytotoxicity against human MCF7 cells by MTT assay; type: functional, cell-based

SMILES | pIC50 (MDA-MB-231) | pIC50 (MCF7)
CC(=O)O[C@H]1C[C@H]([C@@](C)(O)[C@@H]2C[C@H](C)[C@@H](C)C(=O)O2)[C@@]2(C)CC[C@H]3[C@@H](C[C@H]4O[C@]45CC=CC(=O)[C@]35C)[C@@]12O | 5.77 | 5.20
CC1=C(CO)C(=O)O[C@@H]([C@@H](C)[C@H]2CC[C@H]3[C@@H]4C[C@H]5O[C@]56[C@@H](O)C=CC(=O)[C@]6(C)[C@H]4CC[C@]23C)C1 [WITHAFERIN A] | 6.30 | 
CC1=C(C)C(=O)O[C@@H]([C@@H](C)[C@H]2CC[C@H]3[C@@H]4C[C@H]5O[C@]56[C@@H](O)C=CC(=O)[C@]6(CO)[C@H]4CC[C@]23C)C1 [WITHALONGOLIDE B] | 6.70 | 6.10
